Laboratory results published in patent publication US5792793A, “Antibacterial, antifungal and antiviral agent” (priority 1993, dated 1998).

Assays:
Aspergillus flavus = assay: Surface-smearing method, Aspergillus flavus; type: cell-based; details: about 10 mg complex, 4 days at 25° C.
Penicillium chrysogenum = assay: Surface-smearing method, Penicillium chrysogenum; type: cell-based; set-up: key: the proliferation level of the control (=100%, -); +: up to 80% of proliferation with respect to the proliferation level of the control (=100%, -); ++: up to 40% of proliferation; +++: almost complete suppression of proliferation; details: about 10 mg complex, 4 days at 25° C.
[1] = system: Cladosporium cladosporoides; assay: Surface-smearing method, Cladosporium cladosporoides; type: cell-based; set-up: key: the proliferation level of the control (=100%, -); +: up to 80% of proliferation with respect to the proliferation level of the control (=100%, -); ++: up to 40% of proliferation; +++: almost complete suppression of proliferation; details: about 10 mg complex, 4 days at 25° C.
Fusarium oxysporum = assay: Surface-smearing method, Fusarium oxysporum; type: cell-based; details: about 10 mg complex, 4 days at 25° C.
E. coli = assay: Minimal inhibitory concentration, E. coli; type: cell-based; details: SCD liquid medium, 48 hours at 35° C.
S. aureus = assay: Minimal inhibitory concentration, S. aureus; type: cell-based; details: SCD liquid medium, 48 hours at 35° C.
B. subtilis = assay: Minimal inhibitory concentration, B. subtilis; details: SCD liquid medium, 48 hours at 35° C.
Method: (§1) (b) Method for measuring antibacterial activity based on a minimal inhibitory concentration (MIC)
(§2) A bacterium was inoculated in a soybean casein digest (SCD) liquid medium (5 ml) and precultured for 24 hours at 35° C. The precultured bacterial liquid was diluted so as to obtain a 100-fold diluted liquid (0.1 ml), and was inoculated into an SCD liquid medium containing a thiol-silver complex (2 ml). After performing shaking culture for 48 hours at 35° C., presence or absence of proliferation was assessed.

C. albicans = assay: Minimal inhibitory concentration, C. albicans; details: GP liquid medium, 48 hours at 35° C.
Method: (§3) Yeast was inoculated in a glucose-peptone (GP) liquid medium (5 ml) and precultured for 24 hours at 35° C. The precultured bacterial liquid was diluted so as to obtain a 100-fold diluted liquid (0.1 ml), and was inoculated into a GP liquid medium containing a thiol-silver complex (2 ml). After performing shaking culture for 48 hours at 35° C., presence or absence of proliferation was assessed.

P. aeruginosa = assay: Minimal inhibitory concentration, P. aeruginosa; details: SCD liquid medium, 48 hours at 35° C.
Method: as §1, §2

S. cerevisiae = assay: Minimal inhibitory concentration, S. cerevisiae; details: GP liquid medium, 48 hours at 35° C.
Method: as §3

Solubility in water = details: 20° C.
[2] = Stability against exposure to light (color difference); type: physicochemical
Method: To 10 mg of each of the thiol-silver complexes shown in Table 9 to be tested, 1 ml of ethanol was added and then sonicated so as to disperse particles. The dispersed particles were uniformly fixed onto a Kiriyama filter paper (No. 3, diameter: 21 mm) by the application of a suction force. After drying, test pieces of the filter paper were sandwiched between colorless transparent plastic films (each having a thickness of 0.1 mm) and the peripheries were sealed.
The test pieces were exposed to sunlight outdoors on a sunny day. During the test, they were placed such that their surfaces received direct rays of the sun at an incidence angle of approximately 90°.
Measurement was performed using a color difference meter CR-300 (using D65 rays) manufactured by Minolta Camera Co., Ltd. Six hours after exposure to sunlight, measurement was reiterated 4 times and the data were averaged.

mice = assay: Peroral toxicity, single dose; type: in vivo, mice (ICR, male); details: for Dead mice/Total mice: day 14
[3] = system: human cytomegalovirus (HCMV); assay: Anti-HCMV activity, Experiment 1; type: cell-based; details: 10 μg/ml; Experiment 1, HCMV 1×10^3 pfu/ml, HEL cells, 72 hours; control 30
[4] = system: human cytomegalovirus (HCMV); assay: Anti-HCMV activity, Experiment 2 (1); type: cell-based; details: HCMV 1×10^4 pfu/ml, medium not changed, 72 hours, control 390
[5] = system: human cytomegalovirus (HCMV); assay: Anti-HCMV activity, Experiment 2 (2); type: cell-based; details: HCMV 1×10^4 pfu/ml, washed after 1 hour adsorption, 72 hours, control 120
[6] = after exposure to sunlight, six hours

2-Naphthalenethiol-silver complex [#3]
antibacterial activity ranking, surface-smearing method (Aspergillus flavus): + (up to 80% of proliferation with respect to the proliferation level of the control (=100%, -)) | antibacterial activity ranking, surface-smearing method (Penicillium chrysogenum): + (up to 80% of proliferation with respect to the proliferation level of the control (=100%, -)) | antibacterial activity ranking, surface-smearing method [1]: +++ | antibacterial activity ranking, surface-smearing method (Fusarium oxysporum): - (the proliferation level of the control (=100%, -)) | Minimal Inhibitory Concentration (E. coli): 8 µg/mL | Minimal Inhibitory Concentration (S. aureus): 250 µg/mL | Minimal Inhibitory Concentration (B. subtilis): < 2 µg/mL | Minimal Inhibitory Concentration (C. albicans): 125 µg/mL | Minimal Inhibitory Concentration (P. aeruginosa): 250 µg/mL | Minimal Inhibitory Concentration (S. cerevisiae): 62.5 µg/mL

5-Mercapto-(1H)tetrazoylacetic acid-silver complex.Na [#16-b]
antibacterial activity ranking, surface-smearing method (Aspergillus flavus): + (up to 80% of proliferation with respect to the proliferation level of the control (=100%, -)) | antibacterial activity ranking, surface-smearing method (Penicillium chrysogenum): +++ | antibacterial activity ranking, surface-smearing method [1]: +++ | antibacterial activity ranking, surface-smearing method (Fusarium oxysporum): ++ (up to 40% of proliferation) | Minimal Inhibitory Concentration (E. coli): 16 µg/mL | Minimal Inhibitory Concentration (S. aureus): 32 µg/mL | Minimal Inhibitory Concentration (B. subtilis): 32 µg/mL | Minimal Inhibitory Concentration (C. albicans): 250 µg/mL | Minimal Inhibitory Concentration (P. aeruginosa): 16 µg/mL | Minimal Inhibitory Concentration (S. cerevisiae): 125 µg/mL

[Cl][Ag] [silver chloride]
solubility, in water (Solubility in water): less than 1 % by weight

Thiosalicylic acid-silver complex [#1L-8H]
antibacterial activity ranking, surface-smearing method (Aspergillus flavus): - (the proliferation level of the control (=100%, -)) | antibacterial activity ranking, surface-smearing method (Penicillium chrysogenum): ++ (up to 40% of proliferation) | antibacterial activity ranking, surface-smearing method [1]: +++ | antibacterial activity ranking, surface-smearing method (Fusarium oxysporum): ++ (up to 40% of proliferation) | Minimal Inhibitory Concentration (E. coli): < 2 µg/mL | Minimal Inhibitory Concentration (S. aureus): 16 µg/mL | L* (L*a*b* color representation) [2, 6]: 65.4 | a* (L*a*b* color representation) [2, 6]: 8.3 | b* (L*a*b* color representation) [2, 6]: 40.1 | L* (L*a*b* color representation) ([2]; before exposure to sunlight): 83.1 | a* (L*a*b* color representation) ([2]; before exposure to sunlight): 13.2 | b* (L*a*b* color representation) ([2]; before exposure to sunlight): 66.4 | Dead mice/Total mice (mice; 1762 mg/kg peroral single dose): 0/5 | Dead mice/Total mice (mice; 2291 mg/kg peroral single dose): 0/5 | Dead mice/Total mice (mice; 2978 mg/kg peroral single dose): 0/4 | Dead mice/Total mice (mice; 3871 mg/kg peroral single dose): 0/4 | LD50 (mice; peroral, single dose, ICR male mice, 20160 min): not less than 3.9 g/kg | number of cells positive in fluorescent staining (single field of vision) [3]: 5 | number of cells positive in fluorescent staining (single field of vision) ([4]; 1 μg/ml): 280 | number of cells positive in fluorescent staining (single field of vision) ([4]; 10 μg/ml): 240 | number of cells positive in fluorescent staining (single field of vision) ([4]; 50 μg/ml): 100 | number of cells positive in fluorescent staining (single field of vision) ([5]; 1 μg/ml): 30 | number of cells positive in fluorescent staining (single field of vision) ([5]; 10 μg/ml): 30 | number of cells positive in fluorescent staining (single field of vision) ([5]; 50 μg/ml): 20 | Minimal Inhibitory Concentration (B. subtilis): < 2 µg/mL | Minimal Inhibitory Concentration (C. albicans): 1000 µg/mL | Minimal Inhibitory Concentration (P. aeruginosa): 16 µg/mL | Minimal Inhibitory Concentration (S. cerevisiae): 125 µg/mL

α-Thioglycerol-silver complex [#14-b]
antibacterial activity ranking, surface-smearing method (Aspergillus flavus): - (the proliferation level of the control (=100%, -)) | antibacterial activity ranking, surface-smearing method (Penicillium chrysogenum): + (up to 80% of proliferation with respect to the proliferation level of the control (=100%, -)) | antibacterial activity ranking, surface-smearing method [1]: ++ (up to 40% of proliferation) | antibacterial activity ranking, surface-smearing method (Fusarium oxysporum): - (the proliferation level of the control (=100%, -)) | Minimal Inhibitory Concentration (S. aureus): 250 µg/mL | Minimal Inhibitory Concentration (B. subtilis): 250 µg/mL | Minimal Inhibitory Concentration (C. albicans): > 1000 µg/mL | Minimal Inhibitory Concentration (P. aeruginosa): 62.5 µg/mL | Minimal Inhibitory Concentration (S. cerevisiae): 250 µg/mL
